Laboratory results from ChEMBL document CHEMBL1147497, “The inhibition of metallo-beta-lactamase by thioxo-cephalosporin derivatives” (Bioorg Med Chem Lett, 2004).

Assays:
[1] = Binding affinity against nitrocefin
[2] = pKa in water at 30 degree C; format: physicochemical

SMILES | Ki [1] [µM] | pKa [2]
CC1=C(C(=O)O)N2C(=S)[C@@H](NC(=O)Cc3ccccc3)[C@H]2SC1 | 720 | 
CC1=C(C(=O)O)N[C@@H](C2NC(=O)C(c3ccccc3)N=C2S)SC1 (some centres not stated) |  | 10.1
